Source: patent US20130116225A1, “METHOD FOR TREATING HEMATOLOGICAL CANCERS” (NIIKI PHARMA INC., priority 2010, published 2013)
Entries after “also recorded” stand apart in the source; their conditions may differ. Like-named read-outs stand apart in the source and are kept apart here.

What was measured:
[1] = test system: vincristine-resistant Nalm-6 cells; settings: vincristine-resistant Nalm-6, P-gp overexpressing; 72 hours
Description: (§7) After 72 hours of incubation with different concentrations of the agent, DNA fragmentation was measured via FACS scan analysis. […] Values of DNA fragmentation are given as percentages of cells with hypodiploid DNA±s.d. (n=3);
(§8) Apoptotic cell death was determined by a modified cell cycle-analysis, which detects. DNA fragmentation on the single cell level. […] After a 72-hour incubation period at a temperature of 37° C., cells were collected by centrifugation at 1500 rpm for 5 min, washed with PBS at 4° C. and fixed in PBS/2% (v/v) formaldehyde on ice for 30 minutes. After fixation, cells were pelleted, incubated with ethanol/PBS (2:1, v/v) for 15 minutes, pelleted and resuspended in PBS containing 40 μg/ml RNase. RNA was digested for 30 minutes at a temperature of 37° C., after which the cells were pelleted again and finally resuspended in PBS containing 50 μg/ml propidium iodide. Nuclear DNA fragmentation was quantified by flow cytometric determination of hypodiploid DNA. Data were collected and analyzed using a FACScan instrument (Becton Dickinson, Heidelberg, Germany) equipped with CELL Quest software. Data are given in percent hypodiploidy (subG1), which reflects the number of apoptotic cells.

[2] = test system: RPMI-8226 multiple myeloma cells; experiment: Anti-proliferation assay, Cell Titer-Glo (Example 3); format: cell-based, human; settings: 96 hours total culture
Description: (§1) To determine the growth inhibitory activity of tris(8-quinolinolato)gallium(III) and lenalidomide, a representative panel of human multiple myeloma tumor cell lines (OPM-2, RPMI-8226, NCI-H929 and ARH-77) were tested with the compounds in anti-proliferation assays. Specifically, the human tumor cells were placed in a 96-well microculture plate at the appropriate density for 96 hours of total growth time. After 24 hours of incubation in a humidified incubator at 37° C. with 5% CO2 and 95% air, serially diluted test agents in growth medium were added to each well. After 96 total hours of culture in a CO2 incubator, the plates were processed with Cell Titer-Glo (Promega #G7571) according to manufacturer's instructions. Luminescence was detected using a Tecan GENios microplate reader. Percent inhibition of cell growth was calculated relative to untreated control wells. All tests were performed in duplicate at each concentration level.
(§2) The IC50 value for the test agents was estimated using Prism 3.03 by curve-fitting the data using the following four parameter-logistic equation: […]
(§3) where Top is the maximal % of control absorbance, Bottom is the minimal % of control absorbance at the highest agent concentration, Y is the % of control absorbance, X is the agent concentration, IC50 is the concentration of agent that inhibits cell growth by 50% compared to the control cells, and n is the slope of the curve.

[3] = test system: NCI-H929 multiple myeloma cells; experiment: as above; format: cell-based, human
Description: as §1, §2, §3

[4] = test system: ARH-77 multiple myeloma cells; experiment: as above; format: cell-based, human; settings: 96 hours total culture
Description: as §1, §2, §3

[5] = test system: OPM-2 multiple myeloma cells; experiment: as above; format: cell-based, human; settings: 96 hours total culture
Description: as §1, §2, §3

MV4-11 leukemia cells = experiment: Cell growth inhibition, Cell Titer-Glo (Example 4); format: cell-based, human; settings: 96 total hours of culture
Description: The human leukemia cell line MV4-11 cells were placed in a 96-well microculture plate (Costar white, flat bottom #3917) in a total volume of 90 μL/well. After 24 hours of incubation in a humidified incubator at 37° C. with 5% CO2 and 95% air, 10 μL of 10×, serially diluted tris(8-quinolinolato)gallium(III) in growth medium was added to each well. After 96 total hours of culture in a CO2 incubator, the plated cells and Cell Titer-Glo (Promega #G7571) reagents were brought to room temperature to equilibrate for 30 minutes. 100 μL of Cell Titer-Glo® reagent was added to each well. The plate was shaken for 2 minutes and then left to equilibrate for 10 minutes before reading luminescence on the Tecan GENios microplate reader. Percent inhibition of cell growth was calculated relative to untreated control wells. All tests were performed in duplicate at each concentration level. The IC50 value for the test agent was estimated using Prism 3.03 by curve-fitting the data using the following four parameter-logistic equation: […]
as §3, with “minimal” for “minimal %”, “curve. […]” for “curve.”

BJAB lymphoma cells [6] = experiment: LDH release cytotoxicity assay; format: cell-based, human; settings: 1 hour exposure
Description: Cytotoxicity of the different drugs was measured by the release of lactate dehydrogenase (LDH). After incubation with different concentrations of tris(8-quinolinolato)gallium(III) for 1 hour, LDH activity released by BJAB cells was measured in the cell culture supernatants using the Cytotoxicity Detection Kit from Boehringer Mannheim® (Mannheim, Germany). The supernatants were centrifuged at 1500 rpm for 5 min. 20 μl of cell-free supernatants were diluted with 80 μl phosphate-buffered saline (PBS), and 100 μl reaction mixture containing 2-[4-iodophenyl]-3-[4-nitrophenyl]-5-phenyltetrazolium chloride (INT), sodium lactate, […] and diaphorase were added. Then, time-dependent formation of the reaction product was quantified photometrically at 490 nm. The maximum amount of LDH activity released by the cells was determined after lysis of the cells using 0.1% Triton X-100 in culture medium and set to represent 100% cell death.
Unspecific cytotoxic effects of the agent such as necrosis could be excluded by determination of extra cellular lactate dehydrogenase (LDH) via ELISA detection.

[7] = test system: Granta 519 Human Mantle Cell Lymphoma cells; experiment: Anti-proliferation assay, Cell Titer-Glo (Example 6); format: cell-based; settings: 96 total hours of culture
Description: (§4) To determine the antiproliferative activity of tris(8-quinolinolato)gallium(III) in human lymphoma tumor cell lines, anti-proliferation assays were conducted in the DoHH2. Granta 519, and WSU-DLCL2 cell lines. The DoHH2 Human EBV-negative B Cell Lymphoma cells were seeded with 5,000 cells/well and grown in RPMI1640 medium containing 20% FBS, and 2 mM L-Glutamine. The Granta 519 Human Mantle Cell Lymphoma cells were seeded with 10,000 cells/well and grown in DMEM medium containing 10% FBS, and 2 mM L-Glutamine. The WSU-DLCL2 Human B Cell Lymphoma cells were seeded with 5,000 cells/well and grown in RPMI1640 medium containing 10% FBS, and 2 mM L-Glutamine. Specifically, the human tumor cells were placed in a 96-well microculture plate at the appropriate density for 96 hours of total growth time. After 24 hours of incubation in a humidified incubator at 37° C. with 5% CO2 and 95% air, serially diluted test agents in growth medium were added to each well. After 96 total hours of culture in a CO2 incubator, the plates were processed with Cell Titer-Glo (Promega #G7571) according to manufacturer's instructions. Luminescence was detected using a Tecan GENios microplate reader. Percent inhibition of cell growth was calculated relative to untreated control wells. All tests were performed in duplicate at each concentration level. The IC50 value for the test agents was estimated using Prism 3.03 by curve-fitting the data using the four parameter-logistic equation as described in Example 4 above. […] It is known that WSU-DLCL2 cells are resistant to the CHOP (cyclophosphamide, adriamycin, vincristine, prednisone) regimen. See Levi et al., Cancer Chemother. Pharmacal., (published online Aug. 31, 2010). Thus, tris(8-quinolinolato)gallium(III) is also active against lymphoma cells resistant to drugs. such as cyclophosphamide, adriamycin, vincristine, prednisone.

[8] = test system: WSU-DLCL2 Human B Cell Lymphoma cells; experiment: as above; format: cell-based; settings: 96 total hours of culture
Description: as §4

[9] = test system: DoHH2 Human EBV-negative B Cell Lymphoma cells; experiment: as above; format: cell-based; settings: 96 total hours of culture
Description: as §4

BJAB lymphoma cells [10] = experiment: Cell viability and proliferation, CASY Cell Counter; format: cell-based, human
Description: FIG. 1 is a graph showing cell viability and inhibition of proliferation of BJAB lymphoma cells by tris(8-quinolinolato)gallium(III), which inhibits proliferation in a dose-dependent manner up to 100% (exposure time 24 hours);
Cell viability was determined by using the CASY® Cell Counter+Analyzer System of Innovatis (Bielefeld, Germany). Settings were specifically defined for the requirements of the cells used. With this system the cell concentration can be analyzed simultaneously in three different size ranges: thus cell debris, dead cells, and viable cells could be determined in one measurement. Cells were seeded at a density of 1×10^5cells/ml and treated with different concentrations of […]; non-treated cells served as controls. After a 24-hour incubation period, cells were re-suspended completely, and 100 μl of each well were diluted in 10 ml CASYton (ready-to-use isotonic saline solution) for immediate automated counting.
In order to assess the antiproliferative effects of tris(8-quinolinolato)gallium(III), BJAB lymphoma cells were exposed to various concentrations of the drug for 24 hours. The determination of cell viability and cell count were carried out with a CASY® Cell Counter and Analyzer System.

[11] = test system: caspase-9 and caspase-3 in BJAB cells; experiment: Western blot analysis of caspase activation; format: cell-based, human; settings: 24 hours
Description: FIG. 6 includes chromatograms showing Western blot analysis of tris(8-quinolinolato)gallium(III)-treated BJAB cells. Epirubicin was used as a positive control. After incubation for 24 hours the protein extracts were fractionated on a denaturating 4-20% polyacrylamide gel, transferred to nitrocellulose and detected with anti-caspase-31-9 and anti-β-actin antibody. A: caspase-9 (procaspase: 47 kDa; cleavage product: 37 kDa), B: caspase-3 (procaspase: 32 kDa; cleavage products: 18 and 17 kDa), C: β-actin (42 kDa);
For Western blot analysis, cytosolic protein ([…]) was loaded in each lane and was separated by sodium dodecylsulfate (SDS) PAGE. After blotting of proteins onto nitrocellulose membranes (Schleicher and Schuell, Dassel, Germany), the membrane was blocked for 1 h in PBST (PBS containing 0.05% Tween-20) containing 3% nonfat dry milk and incubated with primary antibody overnight at 4° C. After the membrane had been washed three times in PBST, secondary antibody in PBST was applied for 1 h. […]
Further evidence for apoptosis via the intrinsic pathway was obtained by investigating the consecutive activation of caspase-9 and -3 by Western blot analysis. […] The activation of both caspases by proteolytic cleavage was determined after treatment of BJAB cells with tris(8-quinolinolato)gallium(III). […]

[12] = test system: CCRF-CEM, Jurkat, MOLT-4 cell lines; settings: read-out: IC50, inhibiting cell growth and proliferation; all cell lines of Table 1; 48 hours with drug; XTT
Description: Cells have been expanded under appropriate culture conditions until sufficient cells were available for the assay. Adherent cells were trypsinated. Cell count and viability of the cells were determined (Casy T T, Schärfe Systems). The Cells (viability >95%) were seeded in 100 μl of cell culture medium at the appropriate density of living cells into 96-well tissue culture plates. The cells were incubated at 37° C. and 5% CO2 for 24 hours.
For a negative control, 100 μl of cell culture medium were added to three wells (100% value). For a positive control all cells were deadened with phenol (0% value). The cells were incubated with the drug for further 48 hours at 37° C. and 5% CO2.
XTT assays were performed on the above treated cells. XTT is a tetrazolium salt that can be cleaved by “succinate-tetrazolium reductase”, a mitochondrial redox-system that is exclusively active in living cells. The cleavage results in a soluble formazan salt that can be quantified by colorimetric measuring at 450 nm. The intensity of the orange color is directly linked to the number of living, metabolically active cells. A concentrated stock solution (1 mg/ml PBS) of XTT (Sigma-Aldrich) was prepared, aliquoted, filtered and stored at −20° C. […] The developed formazan was quantified in an absorbance micro plate reader (Genios, Tecan) at a measurement wavelength of 450 nm and a reference wavelength of 690 nm.

[13] = test system: caspase-5 gene expression in BJAB cells; experiment: Real-time PCR apoptosis gene expression array; format: cell-based, human; settings: 2.5 μM, 8 hours
Description: (§5) For the analysis of the differential expression of multiple genes involved in the different apoptosis pathways, apoptosis-specific RT2 profiler (polymerase chain reaction) PCR expression arrays (SuperArray PAHS-012; SABiosciences Corporation, Frederick, Md., USA) was used according to the manufacturer's instructions. Total RNA was extracted from BJAB cells treated with […] for 8 hours, and RNAs were treated with DNase I (2 U/μl) to eliminate possible genomic DNA contamination. Total RNA (700 ng/μl) was then used as a template for the synthesis of a cDNA probe and subjected to quantitative real-time PCR SuperArray analysis according to the manufacturer's instructions using a LightCycler480 (Roche Diagnostics). The means of nine housekeeping genes were used to normalize the hybridization signals. Results were analyzed using SuperAnay Analyser Software, and the data are given in-fold expression of the respective genes as compared with control cells incubated in vehicle-containing medium for 8 hours.
(§6) Changes of transcript levels of apoptosis relevant genes were analyzed in RNA isolated from BJAB cells after 8 hours of incubation with 2.5 μM tris(8-quinolinolato)gallium(III). […] Harakiri (Hrk) is a pro-apoptotic Bcl-2 homology domain 3-only protein of the Bcl-2 family.

[14] = test system: Harakiri gene expression in BJAB cells; experiment: Real-time PCR apoptosis gene expression array; format: cell-based, human; settings: 2.5 μM, 8 hours
Description: as §5, §6

[15] = test system: daunorubicin-resistant Nalm-6 cells; settings: daunorubicin-resistant Nalm-6, P-gp overexpressing; 72 hours
Description: as §7, §8

BJAB lymphoma cells [16] = experiment: Apoptosis induction, flow cytometric hypodiploid DNA (DNA fragmentation); format: cell-based, human; settings: 72 hours
Description: FIG. 3 is a diagram showing apoptosis induction measured via flow cytometric determination of hypodiploid DNA in BJAB cells after treatment with tris(8-quinolinolato)gallium(III) for 72 hours. Data are given in % hypodiploidy (subG1)±ESD (n=3), which is consistent with the number of apoptotic cells;
DNA fragmentation on the single cell level.
To quantify the induction of apoptosis triggered by tris(8-quinolinolato)gallium(III) we determined the DNA fragmentation (hypodiploidy) as a characteristic effect of apoptotic cell death. The procedure was conducted by flow cytometric measurement of hypodiploid DNA after incubating lymphoma cells (BJAB) for 72 hours with the agent. Extensive apoptosis induction could be reached even in low concentrations of the agent (AC50: ˜1 μM), seen in FIG. 3.

In the case of [Ga+3].[O-]c1cccc2cccnc12.[O-]c1cccc2cccnc12.[O-]c1cccc2cccnc12 [tris(8-quinolinolato)gallium(III)], the “apoptosis (DNA fragmentation) in resistant cells versus control cells” value [1] is reported as “higher apoptotic amounts in the resistant cells compared to the control cells”, the IC50 ([2]; read-out: IC50) is reported as 820 nM and the IC50 ([3]; 96 hours total culture) is reported as 1570 nM. The IC50 ([4]; read-out: IC50) was 890 nM, the IC50 [5] was 740 nM and the IC50 (MV4-11 leukemia cells) was 1440 nM. The “LDH release (unspecific cytotoxicity, necrosis)” value (BJAB lymphoma cells [6]) was “negligible; also recorded: no significant LDH release”, the IC50 [7] was 2900 nM and the IC50 [8] was 1470 nM. For the same molecule, the IC50 [9] was 213 nM, the “concentration giving complete block of proliferation” value (BJAB lymphoma cells [10]; 24 hours) was ≥ 2 µM and the IC50 (BJAB lymphoma cells [10]; 24 hours, read-out: IC50, inhibition of proliferation) was < 1000 nM. For the same molecule, the “inhibition of proliferation, maximal” value (BJAB lymphoma cells [10]; exposure time 24 hours) was “up to 100%”, the “processing of procaspase-3 and procaspase-9” value [11] was “induces processing of procaspase-3 (p32) and procaspase-9 (p47)” and the IC50 [12] was < 3500 nM. For the same molecule, the “caspase-5 gene expression, upregulation” value [13] was 118 fold, the “Harakiri gene expression, upregulation” value [14] was 29 fold and the “apoptosis (DNA fragmentation) in resistant cells versus control cells” value [15] was “higher apoptotic amounts in the resistant cells compared to the control cells”. It also gave an AC50 (BJAB lymphoma cells [16]) of ~1000 nM and a CC50 (BJAB lymphoma cells [16]; read-out: LC50, apoptosis by DNA fragmentation) of ~1000 nM.

In the case of Nc1cccc2c1CN(C1CCC(=O)NC1=O)C2=O (stereo not drawn) [Lenalidomide, lenalidomide, reference compound], the IC50 [2] is reported as “Inactive”, the IC50 ([3]; Homo sapiens, NCI-H929, 96 hours total culture) is reported as 5280 nM and the IC50 [4] is reported as “Inactive”. For the same molecule, the IC50 ([5]; Homo sapiens) was 5830 nM.
